Data as given in patent US12685777B2, “Compositions, systems, and methods for modulating a target gene” (The Board of Trustees of the Leland Stanford Junior …, priority 2022, dated 2026).

biological target: T1, bromodomain 1 of BRD4 and BTB domain of BCL6 (Homo sapiens, UniProt O60885+P41182, C67R/C84N/C8Q); assay: TR-FRET assay of ternary complex formation; assay type: binding; details: 1 hr at room temperature, 520 nm/490 nm ratio
T1 construct: contains amino acids 5-129 with three mutations, C8Q, C67R, C84N
Experimental: Reaction was incubated for 1 hr at room temperature, and subsequently the fluorescence at 520 nm and 490 nm was measured. The 520 nm/490 nm ratio is plotted respective to DMSO control. The two lower curves are performed by addition of Neg1 and Neg2 instead of JWZ-7-7. […] The structure of JWZ-7-7 is provided in FIG. 2 and the structures of Neg1 and Neg2 are provided below:
Each reaction contained 100 nM BRD4^BD1, 100 nM BCL6BTB-Avi-Biot, 20 nM Streptavidin-FITC (Thermo #SA1001), and 1:400 anti-6×His terbium antibody (PerkinElmer #61H12TLF) in 10 μL of buffer containing 20 mM HEPES, 150 mM NaCl, 0.1% BSA, 0.1% NP-40, and 1 mM TCEP in a 384-well plate. Protein was incubated with drug digitally dispensed (Tecan D300e) for 1 hour in the dark at room temperature before excitation at 337 nm and measurement of emission at 520 nm (FITC) and 490 nm (terbium) with a PHERAstar FS plate reader (BMG Labtech). The ratio of signal at 520 nm to 490 nm was calculated and normalized to DMSO-treated conditions, and plotted.

Ternary complex formation (TR-FRET)	Structure (SMILES)
showed ternary complex formation	CNC(=O)COc1cc2cc(Nc3nc(N4CCC(C(=O)NCCCCCCCCCNC(=O)C[C@@H]5N=C(c6ccc(Cl)cc6)c6c(sc(C)c6C)-n6c(C)nnc65)CC4)ncc3Cl)cc(OC)c2n(C)c1=O [JWZ-7-15, (S)-1-(5-chloro-4-((8-methoxy-1-methyl-3-(2-(methylamino)-2-oxoethoxy)-2-oxo-1,2-dihydroquinolin-6-yl)amino)pyrimidin-2-yl)-N-(9-(2-(4-(4-chlorophenyl)-2,3,9-trimethyl-6H-thieno[3,2-f][1,2,4]triazolo[4,3-a][1,4]diazepin-6-yl)acetamido)nonyl)piperidine-4-carboxamide]
showed ternary complex formation	CNC(=O)COc1cc2cc(Nc3nc(N4CCC(C(=O)NCCCN5CCN(CCCNC(=O)C[C@@H]6N=C(c7ccc(Cl)cc7)c7c(sc(C)c7C)-n7c(C)nnc76)CC5)CC4)ncc3Cl)cc(OC)c2n(C)c1=O [JWZ-7-14, (S)-1-(5-chloro-4-((8-methoxy-1-methyl-3-(2-(methylamino)-2-oxoethoxy)-2-oxo-1,2-dihydroquinolin-6-yl)amino)pyrimidin-2-yl)-N-(3-(4-(3-(2-(4-(4-chlorophenyl)-2,3,9-trimethyl-6H-thieno[3,2-f][1,2,4]triazolo[4,3-a][1,4]diazepin-6-yl)acetamido)propyl)piperazin-1-yl)propyl)piperidine-4-carboxamide]
showed ternary complex formation	CNC(=O)COc1cc2cc(Nc3nc(N4CCC(C(=O)N5CCC6(CC5)CN(CCNC(=O)C[C@@H]5N=C(c7ccc(Cl)cc7)c7c(sc(C)c7C)-n7c(C)nnc75)C6)CC4)ncc3Cl)cc(OC)c2n(C)c1=O [JWZ-7-98, (S)-2-((6-((5-chloro-2-(4-(2-(2-(2-(4-(4-chlorophenyl)-2,3,9-trimethyl-6H-thieno[3,2-f][1,2,4]triazolo[4,3-a][1,4]diazepin-6-yl)acetamido)ethyl)-2,7-diazaspiro[3.5]nonane-7-carbonyl)piperidin-1-yl)pyrimidin-4-yl)amino)-8-methoxy-1-methyl-2-oxo-1,2-dihydroquinolin-3-yl)oxy)-N-methylacetamide]

Second part, the compound before the results:

Structure (SMILES)	Ternary complex formation (TR-FRET)
CNC(=O)COc1cc2cc(Nc3nc(N4CCN(CCCCCCCCNC(=O)C[C@@H]5N=C(c6ccc(Cl)cc6)c6c(sc(C)c6C)-n6c(C)nnc65)CC4)ncc3Cl)cc(OC)c2n(C)c1=O [JWZ-7-23, (S)-2-((6-((5-chloro-2-(4-(8-(2-(4-(4-chlorophenyl)-2,3,9-trimethyl-6H-thieno[3,2-f][1,2,4]triazolo[4,3-a][1,4]diazepin-6-yl)acetamido)octyl)piperazin-1-yl)pyrimidin-4-yl)amino)-8-methoxy-1-methyl-2-oxo-1,2-dihydroquinolin-3-yl)oxy)-N-methylacetamide]	showed ternary complex formation
CNC(=O)COc1cc2cc(Nc3nc(N4CCN(CCCCCCCCCCCNC(=O)C[C@@H]5N=C(c6ccc(Cl)cc6)c6c(sc(C)c6C)-n6c(C)nnc65)CC4)ncc3Cl)cc(OC)c2n(C)c1=O [JWZ-7-22, (S)-2-((6-((5-chloro-2-(4-(11-(2-(4-(4-chlorophenyl)-2,3,9-trimethyl-6H-thieno[3,2-f][1,2,4]triazolo[4,3-a][1,4]diazepin-6-yl)acetamido)undecyl)piperazin-1-yl)pyrimidin-4-yl)amino)-8-methoxy-1-methyl-2-oxo-1,2-dihydroquinolin-3-yl)oxy)-N-methylacetamide]	showed ternary complex formation
CNC(=O)COc1cc2cc(Nc3nc(N4CCC(C(=O)NCCCCCCCCCCNC(=O)C[C@@H]5N=C(c6ccc(Cl)cc6)c6c(sc(C)c6C)-n6c(C)nnc65)CC4)ncc3Cl)cc(OC)c2n(C)c1=O [JWZ-7-20, (S)-1-(5-chloro-4-((8-methoxy-1-methyl-3-(2-(methylamino)-2-oxoethoxy)-2-oxo-1,2-dihydroquinolin-6-yl)amino)pyrimidin-2-yl)-N-(10-(2-(4-(4-chlorophenyl)-2,3,9-trimethyl-6H-thieno[3,2-f][1,2,4]triazolo[4,3-a][1,4]diazepin-6-yl)acetamido)decyl)piperidine-4-carboxamide]	showed ternary complex formation
